Source: patent US20090137572A1, “2-substituted-4-heteroaryl-pyrimidines useful for the treatment of proliferative disorders” (priority 2004, published 2009)

Experiments:
GSK3b = GSK3b (Homo sapiens, UniProt P49841); experiment: Kinase assay (radioactive phosphate incorporation), GSK-3b; assay type: biochemical; conditions: read-out: Kinase Inhibition pIC50 GSK-3b (converted)
Procedure, shortened: (§1)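 Radiometric filter-binding format: recombinant kinase + substrate, pH 7.4 MOPS buffer with EGTA, DTT, vanadate; 100 μM ATP/[γ-32P]-ATP, 15 mM MgCl2; 30° C; stopped on ice, P81 or GF/C filtration, scintillation read.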

CDK2-cyclin A = CDK2-cyclin A (Homo sapiens, UniProt P24941); experiment: Kinase assay (radioactive phosphate incorporation), CDK2-cyclin A; assay type: biochemical; conditions: read-out: Kinase Inhibition pIC50 CDK2-cyclin A (converted)
Procedure, shortened: as §1

CDK2-cycline E = CDK2-cycline E (Homo sapiens, UniProt P24941); experiment: Kinase assay (radioactive phosphate incorporation), CDK2-cyclin E; assay type: biochemical; conditions: read-out: Kinase Inhibition pIC50 CDK2-cycline E (converted)
Procedure, shortened: as §1

CDK7/cyclin H = CDK7/cyclin H (Homo sapiens, UniProt P50613); experiment: CDK 7 assay (CTD peptide substrate); assay type: biochemical; conditions: read-out: Kinase Inhibition pIC50 CDK7-cyclin H (converted)
Sequence of CDK7/cyclin H (P50613 whole entry): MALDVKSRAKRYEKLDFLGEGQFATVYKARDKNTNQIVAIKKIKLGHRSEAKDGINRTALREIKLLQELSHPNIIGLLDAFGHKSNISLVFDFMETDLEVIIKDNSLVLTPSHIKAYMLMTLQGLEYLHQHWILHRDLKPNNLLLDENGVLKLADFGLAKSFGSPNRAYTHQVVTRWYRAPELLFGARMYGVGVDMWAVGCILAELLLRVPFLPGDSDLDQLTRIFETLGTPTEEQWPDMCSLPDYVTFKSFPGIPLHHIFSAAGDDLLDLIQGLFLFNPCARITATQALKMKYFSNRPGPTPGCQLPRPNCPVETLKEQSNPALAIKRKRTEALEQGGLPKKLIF
Sequence of CDK7/cyclin H (P51946 whole entry partner): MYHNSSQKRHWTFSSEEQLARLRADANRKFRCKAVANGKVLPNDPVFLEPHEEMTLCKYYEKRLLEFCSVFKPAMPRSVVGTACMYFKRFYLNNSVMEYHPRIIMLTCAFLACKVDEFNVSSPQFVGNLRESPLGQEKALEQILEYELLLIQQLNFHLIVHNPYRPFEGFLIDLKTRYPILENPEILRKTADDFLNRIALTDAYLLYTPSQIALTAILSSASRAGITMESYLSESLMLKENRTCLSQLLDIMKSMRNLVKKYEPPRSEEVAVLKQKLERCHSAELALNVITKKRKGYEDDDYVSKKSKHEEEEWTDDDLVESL
Procedure, shortened: (§2)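 Test compounds were incubated with recombinant human kinase/cyclin complex and CTD peptide substrate for 45 min at 30° C (pH 7.2, 100 μM ATP spiked with 32PγATP, 15 mM MgCl2). Reactions were stopped on ice, avidin was added, and phosphorylated peptide was captured on P81 filters and counted by scintillation.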

CDK1-cyclin B = CDK1-cyclin B (Homo sapiens, UniProt P06493); experiment: Kinase assay (radioactive phosphate incorporation), CDK1-cyclin B; assay type: biochemical; conditions: read-out: Kinase Inhibition pIC50 CDK1-cyclin B (converted)
Sequence of CDK1-cyclin B (P06493 whole entry): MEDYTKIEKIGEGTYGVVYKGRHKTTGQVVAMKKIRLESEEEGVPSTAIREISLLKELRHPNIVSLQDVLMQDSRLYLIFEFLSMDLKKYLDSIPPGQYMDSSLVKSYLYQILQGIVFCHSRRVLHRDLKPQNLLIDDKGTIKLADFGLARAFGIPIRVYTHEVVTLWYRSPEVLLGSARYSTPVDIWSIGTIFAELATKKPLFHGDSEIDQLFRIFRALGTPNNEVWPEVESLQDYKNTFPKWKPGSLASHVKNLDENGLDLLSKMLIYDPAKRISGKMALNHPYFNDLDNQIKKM
Sequence of CDK1-cyclin B (P14635 whole entry partner): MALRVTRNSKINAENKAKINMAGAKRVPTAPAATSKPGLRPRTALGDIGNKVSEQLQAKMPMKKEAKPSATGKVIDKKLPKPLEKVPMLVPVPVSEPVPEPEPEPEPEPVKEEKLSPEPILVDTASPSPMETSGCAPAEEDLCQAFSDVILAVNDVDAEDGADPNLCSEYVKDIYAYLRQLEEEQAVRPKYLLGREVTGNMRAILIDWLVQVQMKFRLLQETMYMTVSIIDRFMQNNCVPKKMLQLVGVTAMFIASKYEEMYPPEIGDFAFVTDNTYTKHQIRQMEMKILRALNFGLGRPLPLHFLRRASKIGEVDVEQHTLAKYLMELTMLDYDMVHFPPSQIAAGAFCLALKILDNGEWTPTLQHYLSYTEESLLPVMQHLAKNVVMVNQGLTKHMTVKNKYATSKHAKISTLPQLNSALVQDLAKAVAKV
Procedure, shortened: as §1

CDK9/cyclin T1 = CDK9/cyclin T1 (Homo sapiens, UniProt P50750); experiment: CDK 9 assay (CTD peptide substrate); assay type: biochemical; conditions: read-out: Kinase Inhibition pIC50 CDK9-cyclin T1 (converted)
Sequence of CDK9/cyclin T1 (P50750 whole entry): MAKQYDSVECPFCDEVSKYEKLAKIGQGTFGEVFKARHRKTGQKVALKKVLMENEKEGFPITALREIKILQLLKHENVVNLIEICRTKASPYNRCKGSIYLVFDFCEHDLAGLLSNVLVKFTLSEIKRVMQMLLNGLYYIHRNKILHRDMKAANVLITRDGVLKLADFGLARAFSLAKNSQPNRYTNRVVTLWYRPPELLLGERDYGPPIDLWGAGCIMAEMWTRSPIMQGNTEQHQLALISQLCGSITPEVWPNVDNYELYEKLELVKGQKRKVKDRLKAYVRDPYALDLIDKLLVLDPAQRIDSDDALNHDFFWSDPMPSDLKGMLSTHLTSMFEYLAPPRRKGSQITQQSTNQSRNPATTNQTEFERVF
Sequence of CDK9/cyclin T1 (O60563 whole entry partner): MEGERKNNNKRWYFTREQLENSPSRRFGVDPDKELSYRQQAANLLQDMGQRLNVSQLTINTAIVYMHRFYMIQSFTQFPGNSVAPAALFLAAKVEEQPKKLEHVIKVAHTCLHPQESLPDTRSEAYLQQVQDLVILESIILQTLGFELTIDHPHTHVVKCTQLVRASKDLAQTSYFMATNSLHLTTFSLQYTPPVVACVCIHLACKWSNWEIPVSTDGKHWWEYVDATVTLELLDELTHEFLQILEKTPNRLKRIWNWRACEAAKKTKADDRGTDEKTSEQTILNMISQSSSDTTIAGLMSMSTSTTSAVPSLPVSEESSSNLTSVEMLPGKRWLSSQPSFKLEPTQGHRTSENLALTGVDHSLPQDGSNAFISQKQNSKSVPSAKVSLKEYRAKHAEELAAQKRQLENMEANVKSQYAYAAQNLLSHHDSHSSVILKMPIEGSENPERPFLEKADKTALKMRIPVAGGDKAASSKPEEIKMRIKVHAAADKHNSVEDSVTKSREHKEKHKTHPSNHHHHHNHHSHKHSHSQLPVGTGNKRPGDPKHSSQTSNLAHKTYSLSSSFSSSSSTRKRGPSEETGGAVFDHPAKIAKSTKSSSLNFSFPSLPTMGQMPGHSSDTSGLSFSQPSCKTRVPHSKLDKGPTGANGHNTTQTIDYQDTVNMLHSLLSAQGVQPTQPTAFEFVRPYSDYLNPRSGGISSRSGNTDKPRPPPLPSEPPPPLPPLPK
Procedure, shortened: as §2

[1] = biological target: T1, Flt3 (FMS-like tyrosine kinase-3) (Homo sapiens, UniProt P36888); experiment: Kinase assay (radioactive phosphate incorporation), Flt3; assay type: biochemical; conditions: pIC50 is -log(IC50, M), read-out: Kinase Inhibition pIC50 Flt3 (converted)
T1 sequence (P36888 27-993): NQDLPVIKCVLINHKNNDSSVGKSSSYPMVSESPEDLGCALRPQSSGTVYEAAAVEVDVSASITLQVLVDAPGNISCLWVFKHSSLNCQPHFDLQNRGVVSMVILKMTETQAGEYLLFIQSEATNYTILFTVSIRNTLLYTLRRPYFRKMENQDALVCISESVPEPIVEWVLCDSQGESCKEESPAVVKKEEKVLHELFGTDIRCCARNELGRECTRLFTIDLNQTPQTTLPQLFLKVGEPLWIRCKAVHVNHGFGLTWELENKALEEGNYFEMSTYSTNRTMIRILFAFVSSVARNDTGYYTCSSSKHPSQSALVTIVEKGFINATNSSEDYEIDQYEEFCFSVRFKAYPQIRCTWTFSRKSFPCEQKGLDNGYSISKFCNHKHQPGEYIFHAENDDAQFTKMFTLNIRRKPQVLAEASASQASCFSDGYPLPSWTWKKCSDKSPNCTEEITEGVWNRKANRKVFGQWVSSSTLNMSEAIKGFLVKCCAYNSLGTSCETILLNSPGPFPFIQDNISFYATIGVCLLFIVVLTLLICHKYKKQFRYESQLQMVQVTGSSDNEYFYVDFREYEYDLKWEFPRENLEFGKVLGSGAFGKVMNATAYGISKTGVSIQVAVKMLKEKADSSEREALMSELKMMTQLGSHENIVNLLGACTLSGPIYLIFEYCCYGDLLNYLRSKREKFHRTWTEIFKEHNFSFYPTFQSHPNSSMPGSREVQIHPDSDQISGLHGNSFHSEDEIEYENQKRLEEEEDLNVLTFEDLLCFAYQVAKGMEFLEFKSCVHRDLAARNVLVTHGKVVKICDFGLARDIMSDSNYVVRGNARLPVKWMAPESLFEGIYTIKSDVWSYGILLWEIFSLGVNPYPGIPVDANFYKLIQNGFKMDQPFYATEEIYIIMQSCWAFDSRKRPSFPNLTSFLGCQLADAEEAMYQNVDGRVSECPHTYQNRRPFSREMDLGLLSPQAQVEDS
Procedure, shortened: as §1

CDK4-cyclin D1 = CDK4-cyclin D1 (Homo sapiens, UniProt P11802); experiment: Kinase assay (radioactive phosphate incorporation), CDK4-cyclin D1; assay type: biochemical; conditions: read-out: Kinase Inhibition pIC50 CDK4-cyclin D1 (converted)
Sequence of CDK4-cyclin D1 (P11802 whole entry): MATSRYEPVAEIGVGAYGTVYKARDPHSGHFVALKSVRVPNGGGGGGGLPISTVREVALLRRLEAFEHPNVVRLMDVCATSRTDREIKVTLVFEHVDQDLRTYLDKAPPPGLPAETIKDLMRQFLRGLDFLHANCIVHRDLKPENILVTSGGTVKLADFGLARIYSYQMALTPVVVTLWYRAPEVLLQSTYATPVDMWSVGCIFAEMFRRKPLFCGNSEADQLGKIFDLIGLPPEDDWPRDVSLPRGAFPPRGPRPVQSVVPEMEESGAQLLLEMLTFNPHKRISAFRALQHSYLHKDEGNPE
Sequence of CDK4-cyclin D1 (P24385 whole entry partner): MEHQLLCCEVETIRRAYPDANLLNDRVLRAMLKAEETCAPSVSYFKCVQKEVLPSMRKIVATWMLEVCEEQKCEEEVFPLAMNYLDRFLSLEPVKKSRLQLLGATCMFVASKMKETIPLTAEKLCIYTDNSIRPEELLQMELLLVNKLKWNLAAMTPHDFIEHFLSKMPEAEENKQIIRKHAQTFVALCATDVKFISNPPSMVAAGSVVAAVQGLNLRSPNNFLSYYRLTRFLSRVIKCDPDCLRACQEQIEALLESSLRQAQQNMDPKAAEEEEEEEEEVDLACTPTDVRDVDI
Procedure, shortened: as §1

Aurora A kinase = biological target: T2, Aurora A kinase (Homo sapiens, UniProt O14965); experiment: Aurora-A (human) kinase assay (Kemptide substrate); assay type: biochemical; conditions: pIC50 is -log(IC50, M); 15 μM ATP; read-out: Kinase Inhibition pIC50 Aurora A kinase (converted)
T2 construct: purchased
T2 sequence (O14965 1-403): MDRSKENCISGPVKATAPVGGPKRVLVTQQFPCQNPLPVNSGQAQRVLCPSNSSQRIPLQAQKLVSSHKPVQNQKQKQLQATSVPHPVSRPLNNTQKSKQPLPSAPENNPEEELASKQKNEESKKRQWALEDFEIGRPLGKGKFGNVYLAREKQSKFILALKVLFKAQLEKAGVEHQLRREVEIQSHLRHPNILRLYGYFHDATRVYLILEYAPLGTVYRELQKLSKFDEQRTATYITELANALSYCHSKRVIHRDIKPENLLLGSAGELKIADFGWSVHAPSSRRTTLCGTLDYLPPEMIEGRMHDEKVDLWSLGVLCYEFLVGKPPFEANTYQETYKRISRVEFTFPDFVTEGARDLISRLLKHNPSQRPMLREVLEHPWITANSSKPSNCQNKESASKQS
Procedure, shortened: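 Radiometric filter-binding assay: commercial aurora-A kinase (5-10 ng) with 200 μM Kemptide in MOPS/EDTA pH 7.0, started with 10 mM Mg acetate and 15 μM ATP plus [γ-33P]-ATP. Incubated 40 min at room temperature, stopped with phosphoric acid, incorporated 33P counted by scintillation.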

Sequence of GSK3b (P49841 whole entry, species assumed): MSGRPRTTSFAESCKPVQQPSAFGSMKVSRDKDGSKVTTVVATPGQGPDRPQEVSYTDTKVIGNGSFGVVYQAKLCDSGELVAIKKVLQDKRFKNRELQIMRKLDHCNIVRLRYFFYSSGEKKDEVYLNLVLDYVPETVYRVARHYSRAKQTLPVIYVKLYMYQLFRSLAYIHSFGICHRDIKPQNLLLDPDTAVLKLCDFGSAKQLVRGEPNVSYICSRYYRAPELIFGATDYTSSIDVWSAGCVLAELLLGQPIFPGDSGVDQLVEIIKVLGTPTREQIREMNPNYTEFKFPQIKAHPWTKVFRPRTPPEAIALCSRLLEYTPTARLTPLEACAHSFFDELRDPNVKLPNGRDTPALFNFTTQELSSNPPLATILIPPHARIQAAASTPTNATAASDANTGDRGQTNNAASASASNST

Compound | IC50 (GSK3b) | IC50 (CDK2-cyclin A) | IC50 (CDK2-cycline E) | IC50 (CDK7/cyclin H) | IC50 (CDK1-cyclin B) | IC50 (CDK9/cyclin T1) | IC50 [1] | IC50 (CDK4-cyclin D1) | IC50 (Aurora A kinase) | melting point
CNS(=O)(=O)c1cccc(Nc2nccc(-c3sc(N)nc3C)n2)c1 [Compound 26, 3-[4-(2-Amino-4-methyl-thiazol-5-yl)-pyrimidin-2-ylamino]-N-methyl-benzenesulfonamide] | 316 nM | 1000 nM | 251 nM | 794 nM | 1260 nM | 126 nM | 1000 nM | 2510 nM | 79.4 nM | 
CCNS(=O)(=O)c1cccc(Nc2nccc(-c3sc(N)nc3C)n2)c1 [Compound 30, 3-[4-(2-Amino-4-methyl-thiazol-5-yl)-pyrimidin-2-ylamino]-N-ethyl-benzenesulfonamide] | 316 nM | 1000 nM | 100 nM | 398 nM | 2000 nM | 20 nM | 200 nM | 794 nM | 15.8 nM | 
CCNc1nc(C)c(-c2ccnc(Nc3ccc(S(N)(=O)=O)cc3)n2)s1 [Compound 35, 4-[4-(2-Ethylamino-4-methyl-thiazol-5-yl)-pyrimidin-2-ylamino]-benzenesulfonamide] | 631 nM | 6.31 nM | 3.98 nM | 79.4 nM | 31.6 nM | 10 nM | 63.1 nM | 20 nM | 63.1 nM | 
CCNc1nc(C)c(-c2ccnc(Nc3cccc(S(=O)(=O)NCCOC)c3)n2)s1 [Compound 53, 3-[4-(2-Ethylamino-4-methyl-thiazol-5-yl)-pyrimidin-2-ylamino]-N-(2-methoxy-ethyl)-benzenesulfonamide] | 501 nM | 2000 nM | 398 nM | 158 nM | 2000 nM | 100 nM | 200 nM | 158 nM | 158 nM | 
Cc1nc(N)sc1-c1ccnc(Nc2ccc(S(=O)(=O)NCCO)cc2)n1 [Compound 68, 4-[4-(2-Amino-4-methyl-thiazol-5-yl)-pyrimidin-2-ylamino]-N-(2-hydroxy-ethyl)-benzenesulfonamide] | 1260 nM | 20 nM | 10 nM | 2000 nM | 20 nM | 200 nM | 200 nM | 1580 nM | 63.1 nM | 
CCNc1nc(C)c(-c2ccnc(Nc3cccc(S(=O)(=O)NCCO)c3)n2)s1 [Compound 75, 3-[4-(2-Ethylamino-4-methyl-thiazol-5-yl)-pyrimidin-2-ylamino]-N-(2-hydroxy-ethyl)-benzenesulfonamide] | 794 nM | 1260 nM | 200 nM | 398 nM | 1000 nM | 63.1 nM | 63.1 nM | 126 nM |  | 124 to 125 °C
CNc1nc(C)c(-c2ccnc(Nc3cccc(S(=O)(=O)NCCO)c3)n2)s1 [Compound 76, N-(2-Hydroxy-ethyl)-3-[4-(4-methyl-2-methylamino-thiazol-5-yl)-pyrimidin-2-ylamino]-benzenesulfonamide] | 501 nM | 1580 nM | 316 nM | 794 nM | 1260 nM | 63.1 nM | 100 nM | 100 nM | 39.8 nM | 189 to 190 °C
Cc1nc(N)sc1-c1ccnc(Nc2cccc(S(=O)(=O)NCCO)c2)n1 [Compound 77, 3-[4-(2-Amino-4-methyl-thiazol-5-yl)-pyrimidin-2-ylamino]-N-(2-hydroxy-ethyl)-benzenesulfonamide] | 316 nM | 1000 nM | 126 nM | 398 nM | 1000 nM | 25.1 nM | 158 nM | 126 nM | 100 nM | 
